Measured values from patent US7101878B1 (Agouron Pharmaceuticals, Inc., priority 1998, dated 2006).
Where two headings read alike, the source gives them in different places.

Target: T1, human GnRH receptor (Homo sapiens, UniProt P30968)
T1 construct: expressed in transfected cells; host or cells: HEK 293 (hGnRH-R/293, from Dr. Stuart Sealfon)
T1 sequence (P30968 1-328): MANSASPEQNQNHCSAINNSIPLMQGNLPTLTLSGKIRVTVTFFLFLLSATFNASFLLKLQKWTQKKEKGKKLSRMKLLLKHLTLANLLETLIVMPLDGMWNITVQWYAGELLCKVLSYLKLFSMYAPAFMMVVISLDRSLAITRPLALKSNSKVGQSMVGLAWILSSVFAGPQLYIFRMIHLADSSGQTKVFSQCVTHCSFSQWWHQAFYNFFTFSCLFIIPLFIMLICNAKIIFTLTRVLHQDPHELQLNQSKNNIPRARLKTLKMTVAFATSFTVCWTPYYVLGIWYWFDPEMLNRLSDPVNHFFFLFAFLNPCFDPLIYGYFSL
Assay: Radioligand binding, 125I-GnRH-A displacement, membranes of HEK 293 cells with human GnRH receptor
Details: for IC50: read-out: hGnRH IC50; for remaining activity at 1 µM / remaining activity at 10 µM: substrate remaining, closer to zero = closer to 100% inhibition; for remaining activity at 1 µM: 1 uM compound, read-out: S%R 1 uM hGnRHR; for remaining activity at 10 µM: 10 uM compound, read-out: S%R 10 uM hGnRHR
Procedure, shortened: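 Bound tracer was separated by filtration through polyethyleneimine-soaked GF/C filters and counted by liquid scintillation. IC50 from curve fitting; other species were tested under the same conditions.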

[1] = 1 uM, read-out: % Inhib. @ 1 uM hGnRH
[2] = 1 h, repeat of % Inhib. at 1 uM, read-out: Repeats @ 1 uM hGnRH

Row | Structure (SMILES) | inhibition at 1 µM [1] [%] | inhibition at 1 µM [2] [%] | further results
1 | COc1ccc(C(O)C(CO)NC(=O)c2ccc(Cc3cc4c(cc3C)C(C)(C)CCC4(C)C)o2)cc1 (stereo not drawn) | -11 | 24 | 
2 | Cc1cc2c(cc1Cc1ccc(C(=O)N(CCO)Cc3ccccc3)o1)C(C)(C)CCC2(C)C | -10 | -5 | 
3 | COc1ccc(CCNC(=O)c2ccc(Cc3cc4c(cc3C)C(C)(C)CCC4(C)C)o2)cc1OC [drawing 993] | 47 | 52 | 
4 | CCN(CC)CCOC(=O)c1ccc(NC(=O)c2ccc(Cc3cc4c(cc3C)C(C)(C)CCC4(C)C)o2)cc1 [Compound 135] |  |  | IC50: 1440 nM
5 | COc1ccc(CNC(=O)c2ccc(Cc3cc4c(cc3C)C(C)(C)CCC4(C)C)o2)c(OC)c1 [Compound 450] |  |  | remaining activity at 1 µM (1 h): 6%
6 | CCOC(=O)CN(Cc1ccccn1)C(=O)c1ccc(Cc2cc3c(cc2C)C(C)(C)CCC3(C)C)o1 [Compound 216] |  |  | IC50: 4400 nM
7 | Cc1cc2c(cc1Cc1ccc(C(=O)NCc3ccccc3)o1)C(C)(C)CCC2(C)C [Compound 402] |  |  | remaining activity at 1 µM (1 h): 18%
8 | COCCNC(=O)c1ccc(Cc2cc3c(cc2C)C(C)(C)CCC3(C)C)o1 [Compound 40] |  |  | IC50: 530 nM
9 | Cc1cc2c(cc1Cc1ccc(C(=O)Nc3ccc(O)c(C)c3C)o1)C(C)(C)CCC2(C)C [Compound 376] |  |  | remaining activity at 10 µM (1 h): 50%
10 | Cc1cc2c(cc1Cc1ccc(C(=O)NCc3cccc([N+](=O)[O-])c3)o1)C(C)(C)CCC2(C)C [drawing 1231] | 75 | 77 | 
11 | Cc1cc2c(cc1Cc1ccc(C(=O)Nc3ncc([N+](=O)[O-])cn3)o1)C(C)(C)CCC2(C)C [Compound 205] |  |  | IC50: > 10000 nM
12 | Cc1cc2c(cc1Cc1ccc(C(=O)Nc3ccc(OCc4ccccc4)c(OCc4ccccc4)c3)o1)C(C)(C)CCC2(C)C [Compound 62] |  |  | IC50: > 10000 nM
13 | Cc1cc2c(cc1Cc1ccc(C(=O)N3CCN(c4ccc(C(F)(F)F)cn4)CC3)o1)C(C)(C)CCC2(C)C | -4 | -7 | 
14 | CCOc1ccccc1CNC(=O)c1ccc(Cc2cc3c(cc2C)C(C)(C)CCC3(C)C)o1 [Compound 412] |  |  | remaining activity at 1 µM (1 h): 49%
15 | Cc1cc2c(cc1Cc1ccc(C(=O)N[C@H](C)[C@H](O)c3ccc(O)cc3)o1)C(C)(C)CCC2(C)C | -2 | 6 | 
16 | Cc1cc2c(cc1Cc1ccc(C(=O)Nc3ccccc3C(=O)N3CCN(C)CC3)o1)C(C)(C)CCC2(C)C [Compound 348] |  |  | remaining activity at 10 µM (1 h): 49%
17 | Cc1cc2c(cc1Cc1ccc(C(=O)NCc3ccccc3F)o1)C(C)(C)CCC2(C)C [Compound 408] |  |  | remaining activity at 1 µM (1 h): 16%
18 | Cc1cc2c(cc1Cc1ccc(C(=O)NCc3ccccc3Cl)o1)C(C)(C)CCC2(C)C [drawing 1103] | 77 | 84 | 
19 | Cc1cc2c(cc1Cc1ccc(C(=O)NC(c3ccccc3)C(O)c3ccccc3)o1)C(C)(C)CCC2(C)C (stereo not drawn) [drawing 1073] |  |  | % Inhib. @ 1 uM hGnRH (1 uM): −11%; Repeats @ 1 uM hGnRH (repeat of % Inhib. at 1 uM): −8
20 | COc1cc(CCNC(=O)c2ccc(Cc3cc4c(cc3C)C(C)(C)CCC4(C)C)o2)cc(OC)c1 [Compound 430] |  |  | remaining activity at 1 µM (1 h): 55%

Row | Structure (SMILES) | inhibition at 1 µM [1] [%] | inhibition at 1 µM [2] [%] | further results
21 | Cc1cc2c(cc1Cc1ccc(C(=O)NCCc3ccccn3)o1)C(C)(C)CCC2(C)C [drawing 985] | 50 | 62 | 
22 | Cc1cc2c(cc1Cc1ccc(C(=O)Nc3ccccc3)o1)C(C)(C)CCC2(C)C [Compound 195] |  |  | insolubility remark in hGnRH IC50 cell (binding assay conditions): Insol. >3 uM; IC50: 320 nM
23 | COc1cccc(CCNC(=O)c2ccc(Cc3cc4c(cc3C)C(C)(C)CCC4(C)C)o2)c1 [drawing 994] | 49 | 50 | 
24 | COC(=O)CNC(=O)c1ccc(Cc2cc3c(cc2C)C(C)(C)CCC3(C)C)o1 [Compound 164] |  |  | IC50: 1970 nM
25 | CC(=O)c1ccc(NC(=O)c2ccc(Cc3cc4c(cc3C)C(C)(C)CCC4(C)C)o2)cc1 [Compound 396] |  |  | remaining activity at 10 µM (1 h): 55%
26 | Cc1cc2c(cc1Cc1ccc(C(=O)NCc3cccc(C(F)(F)F)c3)o1)C(C)(C)CCC2(C)C | -6 | 16 | 
27 | Cc1cc2c(cc1Cc1ccc(C(=O)NCc3ccc4c(c3)C(C)(C)CCC4(C)C)o1)C(C)(C)CCC2(C)C [Compound 165] |  |  | IC50: > 10000 nM
28 | Cc1cc2c(cc1Cc1ccc(C(=O)NCCc3cccc(C(F)(F)F)c3)o1)C(C)(C)CCC2(C)C [drawing 1020] | 33 | 89 | 
29 | Cc1cc2c(cc1Cc1ccc(C(=O)NCc3cccc(CNc4cc(Cl)nc(N)n4)c3)o1)C(C)(C)CCC2(C)C [Compound 145] |  |  | IC50: 200 nM
30 | Cc1cc2c(cc1Cc1ccc(C(=O)NCc3ccc(C(=O)O)cc3)o1)C(C)(C)CCC2(C)C [drawing 1016] | 44 | 45 | 
31 | Cc1cc2c(cc1Cc1ccc(C(=O)NC3=NN(c4c(Cl)cc(Cl)cc4Cl)C(=O)C3)o1)C(C)(C)CCC2(C)C | -29 | -31 | 
32 | COc1cc(NC(=O)c2ccc(Cc3cc4c(cc3C)C(C)(C)CCC4(C)C)o2)cc(OC)c1 [Compound 179] |  |  | IC50: 190 nM
33 | COc1cccc(C)c1NC(=O)c1ccc(Cc2cc3c(cc2C)C(C)(C)CCC3(C)C)o1 [Compound 378] |  |  | remaining activity at 10 µM (1 h): -4%
34 | Cc1cc2c(cc1Cc1ccc(C(=O)NCCSCc3c(Cl)cccc3Cl)o1)C(C)(C)CCC2(C)C | 14 | 20 | 
35 | COc1cc(OC)c(NC(=O)c2ccc(Cc3c(C)c(C)c4c(c3C)C=CC(C)(C)O4)o2)c(OC)c1 [Compound 184] |  |  | IC50: 560 nM
36 | Cc1cc2c(cc1Cc1ccc(C(=O)NCCc3ccncc3)o1)C(C)(C)CCC2(C)C [drawing 1025] | 83 | 84 | 
37 | Cc1cc2c(cc1Cc1ccc(C(=O)NC(C)CCc3ccccc3)o1)C(C)(C)CCC2(C)C (stereo not drawn) [drawing 1130] | 52 | 52 | 
38 | Cc1cc2c(cc1Cc1ccc(C(=O)Nc3c(Cl)cc(Cl)cc3C(F)(F)F)o1)C(C)(C)CCC2(C)C [Compound 395] |  |  | remaining activity at 10 µM (1 h): 40%
39 | Cc1cc2c(cc1Cc1ccc(C(=O)NCc3cccc4ccccc34)o1)C(C)(C)CCC2(C)C [Compound 422] |  |  | remaining activity at 1 µM (1 h): 34%
40 | Cc1cc2c(cc1Cc1ccc(C(=O)NCCCN3CCCC3=O)o1)C(C)(C)CCC2(C)C [drawing 1131] | 68 | 71 | 

Row | Structure (SMILES) | inhibition at 1 µM [1] [%] | inhibition at 1 µM [2] [%] | further results
41 | Cc1cc2c(cc1Cc1ccc(C(=O)N3CCN(c4cccc(O)c4)CC3)o1)C(C)(C)CCC2(C)C | -1 | -3 | 
42 | Cc1cc2c(cc1Cc1ccc(C(=O)NCCCN(C)c3ccccc3)o1)C(C)(C)CCC2(C)C [drawing 1000] | 67 | 70 | 
43 | Cc1cc2c(cc1Cc1ccc(C(=O)N(C)CC(O)c3cccc(O)c3)o1)C(C)(C)CCC2(C)C (stereo not drawn) | -2 | 9 | 
44 | COc1cc(OC)c(NC(=O)c2ccc(Cc3cc(OC)c(O)cc3OC)o2)c(OC)c1 [Compound 227] |  |  | IC50: > 10000 nM
45 | Cc1cc2c(cc1Cc1ccc(C(=O)NCc3cc4c5ccccc5n(Cc5cc(Cl)ccc5Cl)c4cn3)o1)C(C)(C)CCC2(C)C | -34 | -38 | 
46 | Cc1cc2c(cc1Cc1ccc(C(=O)Nc3ccc(O)c(Cl)c3)o1)C(C)(C)CCC2(C)C [Compound 380] |  |  | remaining activity at 10 µM (1 h): 29%
47 | Cc1cc2c(cc1Cc1ccc(C(=O)NC(C#N)c3ccc(F)cc3)o1)C(C)(C)CCC2(C)C (stereo not drawn) | 2 | 4 | 
48 | CCN(Cc1ccncc1)C(=O)c1ccc(Cc2cc3c(cc2C)C(C)(C)CCC3(C)C)o1 | 10 | 2 | 
49 | Cc1ccccc1CNC(=O)c1ccc(Cc2cc3c(cc2C)C(C)(C)CCC3(C)C)o1 [drawing 1097] | 84 | 86 | 
50 | Cc1cc2c(cc1Cc1ccc(C(=O)NCc3cccc(CNc4ncnc5scc(C)c45)c3)o1)C(C)(C)CCC2(C)C [Compound 142] |  |  | IC50: 3000 nM
51 | Cc1cc2c(cc1Cc1ccc(C(=O)Nc3nccc(Nc4cc(C(F)(F)F)cc(C(F)(F)F)c4)n3)o1)C(C)(C)CCC2(C)C | -29 | -30 | 
52 | COc1cc(OC)c(NC(=O)c2ccc(Cc3c(OC)ccc4c3CCCC4=O)o2)c(OC)c1 [Compound 223] |  |  | IC50: 1660 nM
53 | Cc1cc2c(cc1Cc1ccc(C(=O)Nc3nccc4ccccc34)o1)C(C)(C)CCC2(C)C [Compound 356] |  |  | remaining activity at 10 µM (1 h): 17%
54 | Cc1cc2c(cc1Cc1ccc(C(=O)NCCOCCO)o1)C(C)(C)CCC2(C)C [drawing 1068] | 67 | 69 | 
55 | CCc1cccc(C)c1NC(=O)c1ccc(Cc2cc3c(cc2C)C(C)(C)CCC3(C)C)o1 [Compound 399] |  |  | remaining activity at 10 µM (1 h): 41%
56 | Cc1cc2c(cc1Cc1ccc(C(=O)NC(CO)CC3CCCCC3)o1)C(C)(C)CCC2(C)C (stereo not drawn) [drawing 1215] | 10 | 2 | 
57 | Cc1cc2c(cc1Cc1ccc(C(=O)N3CCN(c4ncccn4)CC3)o1)C(C)(C)CCC2(C)C [Compound 30.5] |  |  | IC50: 5030 nM
58 | CNCCCNC(=O)c1ccc(Cc2cc3c(cc2C)C(C)(C)CCC3(C)C)o1 [drawing 1027] | -22 | -25 | 
59 | Cc1cc2c(cc1Cc1ccc(C(=O)NCCCN3CCN(C)CC3)o1)C(C)(C)CCC2(C)C [drawing 980] | 26 | 26 | 
